For experiment [1], the system named is Botrytis cinerea. The experiment is described as follows: Botrytis cinerea (gray mold) in vitro radial growth test on potato dextrose agar. The format is cell-based. To be noted: 300 ppm; 7 days, 22° C., 90% relative humidity.
The test system of experiment [2] is Fusarium culmorum. Kind of experiment: Fusarium culmorum (foot rot of cereals) in vitro radial growth test on potato dextrose agar. The format is cell-based. The settings on record: 300 ppm; 7 days, 25° C., 60% relative humidity. The procedure: Compounds were dissolved in 0.3% dimethyl sulfoxide and then added to potato dextrose agar medium just prior to dispensing it into petri dishes. 5 mL medium with the compound in the desired concentration was dispensed into 60 mm sterile petri-plates. After solidification, each plate was seeded with a 5 mm size mycelial disc taken from the periphery of an actively growing virulent culture plate. Plates were incubated in growth chambers at 25° C. temperature and 60% relative humidity for seven days and then the radial growth was measured and compared to the one of the untreated control.

Experiment [3] has as its system Parastagonospora nodorum. Kind of experiment: Parastagonospora nodorum (PARANO) microtiter growth inhibition assay, OD600. Format: cell-based. To be noted: 18° C., 15-18 days, read-out: control (growth inhibition by OD600). The procedure: Potato dextrose (PDB) liquid medium (Difco) containing a […] (10^5 spores/ml) spore suspension was prepared. For the inhibition assay, each test compound was solved in dimethyl sulfoxide. 100 μl of the test media-solution was added to a 96-well microtiter plate, consequently, the same volume (100 μl) of spore suspension was added to the well making the final test concentrations and the plate was incubated at 18° C. for 15-18 days. The growth inhibition was evaluated by measuring the OD600. Percent inhibition was calculated with the below formula: I=([…])*100 Where T=treatment, C═control, and B=blank

In experiment [4] the test system is Phakopsora pachyrhizi. Kind of experiment: Phakopsora pachyrhizi test in soybean, greenhouse, preventive activity. The settings on record: 24 h, spray one day before inoculation, soybean plants, read-out: control (efficacy, disease severity rating versus untreated control). The format is in vivo, Phakopsora pachyrhizi on soybean plants. On the procedure:
Compounds were dissolved in 2% dimethyl sulfoxide/acetone and then mixed with water containing emulsifier to the calibrated spray volume of 50 mL. Each spray solution was poured into a spray bottle for further application. To test the preventive activity of the compound, healthy young Soybean plants, raised in the greenhouse, were sprayed with the active compound preparation at the stated application rate inside the spray cabinets using hollow cone nozzles. One day aftertreatment, the plants were inoculated with a conidial suspension containing 2×10^5Phakopsora […]. The inoculated plants were then kept in a greenhouse chamber at 22-24° C. temperature and 80-90% relative humidity for disease expression. A visual assessment of the compound's performance was carried out by rating the disease severity (0-100% scale) on treated plants 3, 7, 10 and 15 days after application. Efficacy (% control) of the compound was calculated by comparing the disease rating in the treatment with the one of the untreated control. The sprayed plants were also assessed for plant damage by recording symptoms like necrosis, chlorosis and stunting.

These results are taken from patent US20220348567A1, “NOVEL OXADIAZOLE COMPOUNDS CONTAINING 5- MEMBERED HETEROAROMATIC RING FOR CONTROLLING OR PREVENTING PHYTOPATHOGENIC FUNGI” (PI INDUSTRIES LTD., priority 2019, published 2022).

`CS(=O)(=NC(=O)c1ccn(-c2ccc(-c3noc(C(F)(F)F)n3)cc2)c1)c1ccncc1F` (centres unmarked) [Compound 28, N-((3-fluoropyridin-4-yl)(methyl)(oxo)-λ^6-sulfanylidene)-1-(4-(5-(trifluoromethyl)-1,2,4-oxadiazol-3-yl)phenyl)-1H-pyrrole-3-carboxamide]: the “control (radial growth compared to untreated control)” value in experiment [1] and in experiment [2] was no less than 70% throughout. The inhibition at 300 ppm in experiment [3] was no less than 70%.
Take `O=C(Cc1cn(-c2ccc(-c3noc(C(F)(F)F)n3)cc2)cn1)Nc1ccccc1` [Compound 15, N-phenyl-2-(1-(4-(5-(trifluoromethyl)-1,2,4-oxadiazol-3-yl)phenyl)-1H-imidazol-4-yl)acetamide]: the inhibition at 300 ppm in experiment [3] was no less than 70%. Also, the pest or weed control at 500 ppm in experiment [4] is no more than 70%.

As usually defined, the inhibition is how much of the control response was suppressed.
